Measured values taken from patent US9944660B2, “Tricyclic benzoxaboroles as antibacterial agents” (Daiichi Sankyo Company, Limited, priority 2014, dated 2018).

Assays:
E. coli ATCC 25922 = test: Bacterial susceptibility testing (MIC, CLSI microdilution); format: cell-based; settings: Escherichia coli, ATCC25922
Procedure: (§1) (Test Example 2) Method of Testing Susceptibility of Bacterial [MICs]
(§2) Minimum inhibitory concentration (MIC) were determined as recommended by the Clinical and Laboratory Standards Institute (CLSI) in 2010 (M100-520), in 2011 (M100-521), 2012 (M100-522) and in 2013 (M100-523) with minor modifications.
(§3) In short, bacterial cultures were streaked on Muller Hinton Agar plates and incubated at 35±2° C. for about 18 to 20 hours. Following day colony suspension was prepared in saline and adjusted to 0.5 McFarland using Densitometer. This culture was further diluted 100 fold in Muller Hinton Broth or M9 minimal media or pooled human urine and used for MIC determination. The test compounds were prepared in dimthylesulfoxide (DMSO) at concentration of 1 mg/mL, and diluted to 32 μg/mL in respective media. Further two fold serial dilution were prepared in 96 well microtiter plates. 50 μL of diluted cultures were added to all wells and incubated at 35±2° C. for about 16 to 20 hours.

K. pneumoniae ATCC 13883 = test: as above; format: cell-based; settings: Klebsiella pneumoniae, ATCC13883
Procedure: as §1, §2, §3

P. aeruginosa = test: as above; format: cell-based; settings: Pseudomonas aeruginosa, strain not stated, read-out: MIC against P. aeruginosa
Procedure: as §1, §2, §3

P. aeruginosa PAO-1 = test: In vivo efficacy in P. aeruginosa PAO1 murine lung infection model; settings: subcutaneous 75 mg/kg twice daily
Procedure: (Test Example 3c) In Vivo Efficacy in P. aeruginosa PAO1 Murine Lung Infection Model Overnight grown culture of P. aeruginosa PAO-1 on TSA agar was inoculated in Brain heart infusion broth (BHI, DIFCO) and grown in a shaker incubator with shaking at 110 rpm at 35±2° C. overnight. The culture was subcultured in 50 mL of BHI and incubated again at 110 rpm at 35±2° C. on a shaker incubator till the optical density of the culture reaches 0.5-0.7 units. For infection, animals were weighed, randomized and anesthetized by giving isofluorane. Under anesthesia the animals were infected with 50 μL of the inoculum prepared as above by intranasal route. The test compounds were administered at 75 mg/kg body weight by subcutaneous route after 1 hour and 6 hours post infection. Animals were euthanized, lungs were removed aseptically and homogenized in PBS (3 mL) and serial dilutions plated on TSA plates 24 hours post infection.

[1] = Oral bioavailability (BA) in rats; format: in vivo; settings: male, rat, plasma, 8.5 mg/kg body weight; Sprague Dawley Rats, 8.5 mg/kg oral, 4.25 mg/kg intravenous; read-out: oral absolute bioavailability
Procedure: (Test Example 8a) Oral Bioavailability (BA) in Rats
To Male Sprague Dawley Rats (215±10 g) test compound was administered as 2.0 mg/mL solution in milli-Q water (pH 5.0) by intravenous and oral route. The final dose was 4.25 mg/kg body weight (intravenous) or 8.5 mg/kg body weight (oral). Plasma samples analyzed for test compound using LC-MS/MS method. Estimation of pharmacokinetic parameters was done by using moment analysis. WinNonlin software 6.1 (Pharsight) was utilized for the estimation of PK parameters and oral bioavailability.

[2] = Oral bioavailability (BA) in mouse; format: in vivo; settings: female, plasma, 8.5 mg/kg body weight, Swiss mice, 8.5 mg/kg oral, 4.25 mg/kg intravenous, read-out: oral absolute bioavailability
Procedure: (Test Example 8b) Oral Bioavailability (BA) in Mouse
To Female Swiss mouse (23±3 g) test compound was administered as 0.5 mg/mL intravenous and 1 mg/mL oral solution in milli-Q water (pH 5.0). The final dose was 4.25 mg/kg body weight (intravenous) and 8.5 mg/kg body weight (oral route). Plasma samples analyzed for test compound using LC-MS/MS method. Estimation of pharmacokinetic parameters was done by using moment analysis. WinNonlin software 6.1 (Pharsight) was utilized for the estimation of PK parameters and oral bioavailability.

Which results are given for `Cl.NC[C@H]1OB(O)c2ccc3c(c21)OCO3` (single isomer, unassigned) [Compound 6]?
MIC (E. coli ATCC 25922): 1 µg/mL; MIC (K. pneumoniae ATCC 13883): 1 µg/mL; MIC (P. aeruginosa): 2 µg/mL; log reduction in cfu from 24 hours untreated control (P. aeruginosa PAO-1): 4.04 log; log reduction in cfu's from baseline (P. aeruginosa PAO-1): 2.58 log; bioavailability [1]: 72%; bioavailability [2]: 62%
